Laboratory results published in US20190343853A1, “METHODS OF TREATING HYPERTENSION” (THERACOS SUB, LLC, priority 2018, published 2019).

Columns and labels:
[1] = tested on: subjects with diabetes; test: Example 1/2: multicenter double-blind placebo-controlled 96 week trial, seated office blood pressure and blood-pressure TEAEs; type: in vivo, human
Experimental: In a multicenter double-blind placebo-controlled trial, subjects with diabetes were administered Compound 1, 20 mg per day or placebo for 96 weeks. The blood pressure of resting seated subjects was measured at every office visit. Although the study population was not specifically recruited to contain participants with hypertension, a fraction of the population was affected by the disease and the mean baseline systolic blood pressure of the entire study population was 127 mm Hg. The effects of Compound 1 and placebo on systolic and diastolic blood pressure as a function of time are shown in FIG. 5 (systolic) and FIG. 6 (diastolic).
A treatment emergent adverse event (TEAE) is an adverse event that develops during or immediately following the period of exposure to the investigational product in a clinical trial. An adverse event is any event that represents an unfavorable change in the health of the individual that is clinically significant—it may represent a new condition or status or materially worsened pre-existing condition. In the clinical trial of Example 1, hypertension was recorded as a TEAE in 2 subjects that had been administered Compound 1 and in 5 subjects administered placebo. […] One episode of hypotension was observed among subjects administered Compound 1 and none among subjects administered placebo. The lower incidence of hypertensive TEAEs and the single episode of hypotension are consistent with the antihypertensive effect of Compound 1. In addition, the observation of only a single episode of hypotension is notable because the mean systolic blood pressure at baseline was only 127 mm Hg, well below the 140 mm Hg level that demarks a widely adopted standard for the diagnosis of hypertension.

[2] = tested on: subjects with seated office systolic blood pressure of ≥140 mm Hg and <180 mm Hg; test: Study THR-1442-C-603A: double-blind placebo-controlled 12 week trial in a hypertensive population not pre-selected for diabetes; type: in vivo, human
Experimental: A qualified ABPM record contained no fewer than 64 measurements over an approximately 24 h period and a mean SBP≥135 mm Hg.
A total of 678 subjects were randomly assigned to the active arm or to the placebo arm.
The study was conducted in the United States at multiple clinical sites. The randomized population consisted of 409 male and 269 female participants with a mean age ±standard deviation of 58.5±11.74. […] 64.7% were self-declared Caucasian, 29.9% African-American, 1.6% Asian, 0.3% Native American/Native Alaskan, 0.1% Native Hawaiian/Other Pacific Islander, 1.0% Multiracial and 2.2% Other. 8.1% self-declared Hispanic or Latino ethnicity. The study population was obese, having a median body mass index (kg m^−2) of 31.9 and a mean weight of 98.3±35.0 kg. A history of diagnosed diabetes was elicited from 24.3% of the subjects and 18.0% were presently unmedicated for hypertension.
The baseline 24 h average SBP from ABPM was 147.3±9.93 and the DBP was 84.5±9.65. 11.7% of the subjects produced a baseline ABPM SBP≥160 mm Hg.
Following self-administration of investigational product for 12 weeks, subjects underwent ABPM to assess the potential treatment effect. After the first 300 subjects had completed 12 weeks of participation, the mean SBP was 140.90, corresponding to a decrease from baseline in the entire population of 6.4 mm Hg.
A total of 678 subjects were randomized, of whom 5 were excluded for major protocol violations. Of the remaining 673 participants, 307 out of 334 in the bexagliflozin arm and 319 out of 339 in the placebo arm completed the study. The arms were well-balanced in general by demographic characteristics. The population was predominantly male (60.5%) and Caucasian (65.2%) with the remainder by race predominantly of African heritage (29.4%). Participants of Latino ethnicity comprised 8.0% of the total. The mean age was 58.9 years and 24.8% were diabetic. The mean subject was obese with a BMI of 32.6 kg/m^2, and 81% reported at least one prescription for anti-hypertensive medication. ACE inhibitors and ARBs were the most commonly encountered agents. Calcium channel blockers, diuretics and β-blockers were the next most commonly encountered, in that order. The mean seated office blood pressure was 156/91 with a heart rate of 73. The mean ABPM at baseline was 147.5/85.0. Nearly all participants had preserved renal function.

[3] = tested on: spontaneously hypertensive rat, stroke prone strain (SHRSP); details: previously reported (Zhang 2011); cited from earlier work
[4] = subjects with systolic blood pressure of 140 mm Hg or above at study entry, 20 mg per day, persisted for duration of trial

## OC[C@H]1O[C@@H](c2ccc(Cl)c(Cc3ccc(OCCOC4CC4)cc3)c2)[C@H](O)[C@@H](O)[C@@H]1O [Compound 1, (2S,3R,4R,5S,6R)-2-(4-chloro-3-(4-(2-cyclopropoxyethoxy)benzyl)phenyl)-6-(hydroxymethyl)tetrahydro-2H-pyran-3,4,5-triol]
[1]; 20 mg per day, 96 weeks
  episodes of hypotension: One
  hypertension recorded as a TEAE: 2 subjects
  hypertensive crisis: 0 subjects
[1]; mean systolic blood pressure at baseline 127 mm Hg
  propensity for producing deleterious reductions in blood pressure: favorably low propensity
[1]; [4]
  reduction in diastolic blood pressure: approximately 7 mm Hg
  reduction in systolic blood pressure: approximately 12 mm Hg
[2]; 20 mg tablets, 12 weeks
  proportion of subjects achieving a seated office DBP≤90 mm Hg: 0.65
  proportion of subjects achieving a seated office SBP≤140 mm Hg: 0.38
[2]; 20 mg tablets, 12 weeks, 95% confidence interval −6.83, −2.42, p<0.0001
  placebo-adjusted change in seated office SBP from baseline: −4.63 mm Hg
[2]; 20 mg tablets, week 12, 95% CI −3.70, −0.91, p=0.0011
  placebo-adjusted change in seated office DBP from baseline: −2.31 mm Hg
[2]; ABPM
  anti-hypertensive effect over the 24 h ABPM data collection period (hourly change in blood pressure): did not show significant waning
[2]; ABPM, p=0.0025
  placebo-adjusted reduction in ambulatory mean SBP from baseline to week 12: 2.72 mm Hg
[2]; active arm, 12 weeks
  adverse events by percentage among participants: 41.9%
  adverse events leading to subject withdrawal or treatment discontinuation: 1.8%
[2]; active versus placebo arm
  serious adverse events: balanced between the arms
[2]; subgroup: concomitant diuretic use, p=0.0021
  treatment effect by ABPM SBP measurement: −5.60 mm Hg
[2]; subgroup: concomitant β-blocker use, p=0.0012
  treatment effect by ABPM SBP measurement: −6.26 mm Hg
[2]; subgroup: history of diabetes, p=0.0023
  treatment effect by ABPM SBP measurement: −6.07 mm Hg
[2]; subgroup: participants with stage 3 CKD, p=0.0571
  treatment effect by ABPM SBP measurement: −7.53 mm Hg
[2]; subgroup: use of 3 or more anti-hypertensive medications, p=0.0071
  treatment effect by ABPM SBP measurement: −5.55 mm Hg
[2]; versus placebo arm, 95% CI 1.13, 2.35, p=0.0094
  odds ratio for achieving seated office DBP≤90 mm Hg: 1.63
[2]; versus placebo arm, 95% CI 1.32, 2.62, p=0.0004
  odds ratio for achieving seated office SBP≤140 mm Hg: 1.86
[3]
  effect in SHRSP rat: protective effects
